Measurements published in ChEMBL document CHEMBL1201861, “Genomics of Drug Sensitity in Cancer screening data, Wellcome Trust Sanger Institute”.

What was measured:
Assay in all cases: cells
[1] = system: C8166; type: functional, cell-based, Homo sapiens;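 note: growth inhibition of human C8166 cells measured by a cell viability assay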
Description: SANGER: Inhibition of human C8166 cell growth in a cell viability assay.

[2] = system: EW-3; type: functional, cell-based, Homo sapiens;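 note: cell viability assay read-out, IC50 reflects inhibition of growth of the EW-3 cells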
Description: SANGER: Inhibition of human EW-3 cell growth in a cell viability assay.

[3] = system: NCI-H747; type: functional, cell-based, Homo sapiens;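 note: growth inhibition of human NCI-H747 cells, read out by a cell viability assay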
Description: SANGER: Inhibition of human NCI-H747 cell growth in a cell viability assay.

[4] = system: ES7; type: functional, cell-based, Homo sapiens;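 note: growth inhibition of cultured human ES7 cells, read out as cell viability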
Description: SANGER: Inhibition of human ES7 cell growth in a cell viability assay.

[5] = system: TE-10; type: functional, cell-based, Homo sapiens;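 note: growth inhibition of TE-10 cells, measured by a cell viability assay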
Description: SANGER: Inhibition of human TE-10 cell growth in a cell viability assay.

[6] = system: BB65-RCC; type: functional, cell-based, Homo sapiens;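 note: growth inhibition of the cell line, measured with a cell viability assay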
Description: SANGER: Inhibition of human BB65-RCC cell growth in a cell viability assay.

[7] = system: SF-126; type: functional, cell-based, Homo sapiens;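 note: growth inhibition of human SF126 cells, read out with a cell viability assay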
Description: SANGER: Inhibition of human SF126 cell growth in a cell viability assay.

[8] = system: Calu-6; type: functional, cell-based, Homo sapiens;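 note: growth of human Calu-6 cells, read out by a cell viability assay, IC50 marking inhibition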
Description: SANGER: Inhibition of human Calu-6 cell growth in a cell viability assay.

[9] = system: MLMA; type: functional, cell-based, Homo sapiens;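 note: growth inhibition of MLMA cells (human), determined through a cell viability readout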
Description: SANGER: Inhibition of human MLMA cell growth in a cell viability assay.

[10] = system: HT-144; type: functional, cell-based, Homo sapiens
Description: SANGER: Inhibition of human HT-144 cell growth in a cell viability assay.

[11] = system: EW-11; type: functional, cell-based, Homo sapiens;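 note: growth inhibition of human EW-11 cells, measured with a cell viability assay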
Description: SANGER: Inhibition of human EW-11 cell growth in a cell viability assay.

[12] = system: DOHH-2; type: functional, cell-based, Homo sapiens;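 note: growth inhibition of human DOHH-2 cells, read out with a cell viability assay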
Description: SANGER: Inhibition of human DOHH-2 cell growth in a cell viability assay.

[13] = system: D-502MG; type: functional, cell-based, Homo sapiens
Description: SANGER: Inhibition of human D-502MG cell growth in a cell viability assay.

[14] = system: NB12; type: functional, cell-based, Homo sapiens;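 note: growth inhibition of human NB12 cells, read out by a cell viability assay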
Description: SANGER: Inhibition of human NB12 cell growth in a cell viability assay.

[15] = system: KMOE-2; type: functional, cell-based, Homo sapiens;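 note: growth inhibition of human KMOE-2 cells, read out with a cell viability assay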
Description: SANGER: Inhibition of human KMOE-2 cell growth in a cell viability assay.

[16] = system: LOX IMVI; type: functional, cell-based, Homo sapiens
Description: SANGER: Inhibition of human LOXIMVI cell growth in a cell viability assay.

[17] = system: no-11; type: functional, cell-based, Homo sapiens;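 note: growth inhibition of human NO-11 cells, read out with a cell viability assay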
Description: SANGER: Inhibition of human no-11 cell growth in a cell viability assay.

[18] = system: OVCAR-4; type: functional, cell-based, Homo sapiens;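 note: growth inhibition of human OVCAR-4 cells, measured with a cell viability assay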
Description: SANGER: Inhibition of human OVCAR-4 cell growth in a cell viability assay.

[19] = system: J-RT3-T3-5; type: functional, cell-based, Homo sapiens;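 note: cell viability assay measuring growth inhibition of human J-RT3-T3-5 cells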
Description: SANGER: Inhibition of human J-RT3-T3-5 cell growth in a cell viability assay.

[20] = system: RCC10RGB; type: functional, cell-based, Homo sapiens;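 note: growth inhibition of human RCC10RGB cells, read out by a cell viability assay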
Description: SANGER: Inhibition of human RCC10RGB cell growth in a cell viability assay.

[21] = system: TE-11; type: functional, cell-based, Homo sapiens;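 note: growth inhibition of human TE-11 cells, read out by a cell viability assay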
Description: SANGER: Inhibition of human TE-11 cell growth in a cell viability assay.

[22] = system: EM-2; type: functional, cell-based, Homo sapiens;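 note: growth inhibition of EM-2 cells, read out with a cell viability assay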
Description: SANGER: Inhibition of human EM-2 cell growth in a cell viability assay.

[23] = system: HD-MY-Z; type: functional, cell-based, Homo sapiens;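 note: growth inhibition of HD-MY-Z cells, read out with a cell viability assay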
Description: SANGER: Inhibition of human HD-MY-Z cell growth in a cell viability assay.

[24] = system: DMS-114; type: functional, cell-based, Homo sapiens
[25] = system: TK-10; type: functional, cell-based, Homo sapiens;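 note: growth inhibition of TK-10 cells, read out in a cell viability assay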
Description: SANGER: Inhibition of human TK10 cell growth in a cell viability assay.

[26] = system: L-428; type: functional, cell-based, Homo sapiens
Description: SANGER: Inhibition of human L-428 cell growth in a cell viability assay.

[27] = system: HAL-01; type: functional, cell-based, Homo sapiens;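 note: growth inhibition of human HAL-01 cells, read out with a cell viability assay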
Description: SANGER: Inhibition of human HAL-01 cell growth in a cell viability assay.

[28] = system: SK-LMS-1; type: functional, cell-based, Homo sapiens;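 note: growth inhibition of human SK-LMS-1 cells, read out with a cell viability assay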
Description: SANGER: Inhibition of human SK-LMS-1 cell growth in a cell viability assay.

[29] = system: COLO-800; type: functional, cell-based, Homo sapiens;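 note: growth inhibition of COLO-800 cells, read out with a cell viability assay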
Description: SANGER: Inhibition of human COLO-800 cell growth in a cell viability assay.

[30] = system: K5; type: functional, cell-based, Homo sapiens
Description: SANGER: Inhibition of human K5 cell growth in a cell viability assay.

[31] = system: NCI-H23; type: functional, cell-based, Homo sapiens;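 note: cell viability assay measuring growth inhibition of NCI-H23 cells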
Description: SANGER: Inhibition of human NCI-H23 cell growth in a cell viability assay.

[32] = system: SJSA-1; type: functional, cell-based, Homo sapiens;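 note: growth inhibition of human SJSA-1 cells, read out through a cell viability measurement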
Description: SANGER: Inhibition of human SJSA-1 cell growth in a cell viability assay.

[33] = system: TE-1; type: functional, cell-based, Homo sapiens;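 note: growth inhibition of the human TE-1 cell line, read out with a cell viability assay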
Description: SANGER: Inhibition of human TE-1 cell growth in a cell viability assay.

[34] = system: MC116; type: functional, cell-based, Homo sapiens;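 note: growth inhibition of MC116 cells, read out with a cell viability assay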
Description: SANGER: Inhibition of human MC116 cell growth in a cell viability assay.

[35] = system: NCI-H1092; type: functional, cell-based, Homo sapiens;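 note: cell growth inhibition measured with a cell viability assay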
Description: SANGER: Inhibition of human NCI-H1092 cell growth in a cell viability assay.

[36] = system: RH-1; type: functional, cell-based, Homo sapiens;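 note: growth inhibition of human RH-1 cells, read out with a cell viability assay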
Description: SANGER: Inhibition of human RH-1 cell growth in a cell viability assay.

[37] = system: SNB-75; type: functional, cell-based, Homo sapiens;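 note: cell viability assay measuring growth inhibition of human SNB-75 cells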
Description: SANGER: Inhibition of human SNB75 cell growth in a cell viability assay.

[38] = system: RKO; type: functional, cell-based, Homo sapiens;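 note: growth inhibition of human RKO cells, read out with a cell viability assay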
Description: SANGER: Inhibition of human RKO cell growth in a cell viability assay.

[39] = system: A704; type: functional, cell-based, Homo sapiens;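 note: growth inhibition of human A704 cells, read out with a cell viability assay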
Description: SANGER: Inhibition of human A704 cell growth in a cell viability assay.

[40] = system: HT; type: functional, cell-based, Homo sapiens
Description: SANGER: Inhibition of human HT cell growth in a cell viability assay.

[41] = system: MV4-11; type: functional, cell-based, Homo sapiens, MV-4-11;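 note: cell viability readout measuring growth inhibition of human MV-4-11 cells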
Description: SANGER: Inhibition of human MV-4-11 cell growth in a cell viability assay.

[42] = system: D-263MG; type: functional, cell-based, Homo sapiens
Description: SANGER: Inhibition of human D-263MG cell growth in a cell viability assay.

[43] = system: A498; type: functional, cell-based, Homo sapiens;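 note: growth inhibition of human A498 cells, read out with a cell viability assay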
Description: SANGER: Inhibition of human A498 cell growth in a cell viability assay.

[44] = system: BV-173; type: functional, cell-based, Homo sapiens
Description: SANGER: Inhibition of human BV-173 cell growth in a cell viability assay.

[45] = system: TGW; type: functional, cell-based, Homo sapiens;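 note: growth inhibition of human TGW cells, read out with a cell viability assay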
Description: SANGER: Inhibition of human TGW cell growth in a cell viability assay.

[46] = system: LXF-289 cell line; type: functional, cell-based, Homo sapiens
Description: SANGER: Inhibition of human LXF-289 cell growth in a cell viability assay.

[47] = system: NCI-H1355; type: functional, cell-based, Homo sapiens;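 note: growth inhibition of human NCI-H1355 cells, read out by a cell viability assay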
Description: SANGER: Inhibition of human NCI-H1355 cell growth in a cell viability assay.

[48] = system: LS-411N; type: functional, cell-based, Homo sapiens
[49] = system: LNCaP-Clone-FGC; type: functional, cell-based, Homo sapiens
Description: SANGER: Inhibition of human LNCaP-Clone-FGC cell growth in a cell viability assay.

BLEOMYCIN
IC50 ([1]; c8166): 7.77 µM | IC50 ([2]; ew-3): 18.5 µM | IC50 ([3]; nci-h747): 1.21 µM | IC50 ([4]; es7): 0.378 µM | IC50 ([5]; te-10): 0.783 µM | IC50 ([6]; bb65-rcc): 21.4 µM | IC50 ([7]; sf-126): 3.09 µM | IC50 ([8]; calu-6): 7.67 µM | IC50 ([9]; mlma): 0.87 µM | IC50 ([10]; ht-144): 0.0551 µM | IC50 ([11]; ew-11): 6.41 µM | IC50 ([12]; dohh-2): 5.29 µM | IC50 ([13]; d-502mg): 1010 µM | IC50 ([14]; nb12): 82.4 µM | IC50 ([15]; kmoe-2): 544 µM | IC50 ([16]; lox imvi): 0.452 µM | IC50 [17]: 85.6 µM | IC50 ([18]; ovcar-4): 4.41 µM | IC50 ([19]; j-rt3-t3-5): 0.712 µM | IC50 ([20]; rcc10rgb): 70.6 µM | IC50 ([21]; te-11): 6.08 µM | IC50 ([22]; em-2): 84.8 µM | IC50 ([23]; hd-my-z): 0.56 µM | IC50 ([24]; dms-114): 6.79 µM | IC50 ([25]; tk-10): 0.999 µM | IC50 ([26]; l-428): 52.3 µM | IC50 ([27]; hal-01): 0.000453 µM | IC50 ([28]; sk-lms-1): 2.66 µM | IC50 ([29]; colo-800): 2.21 µM | IC50 ([30]; k5): 72.4 µM | IC50 ([31]; nci-h23): 2.47 µM | IC50 ([32]; sjsa-1): 2.19 µM | IC50 ([33]; te-1): 6.43 µM | IC50 ([34]; mc116): 2.11 µM | IC50 ([35]; nci-h1092): 160 µM | IC50 ([36]; rh-1): 0.152 µM | IC50 ([37]; snb-75): 1.61 µM | IC50 ([38]; rko): 0.524 µM | IC50 ([39]; a704): 10.6 µM | IC50 ([40]; ht): 5.56 µM | IC50 ([41]; mv-4-11): 0.00991 µM | IC50 ([42]; d-263mg): 142 µM | IC50 ([43]; a498): 1020 µM | IC50 ([44]; bv-173): 0.855 µM | IC50 ([45]; tgw): 65.8 µM | IC50 ([46]; lxf-289): 0.644 µM | IC50 ([47]; nci-h1355): 8.2 µM | IC50 ([48]; ls-411n): 0.0528 µM | IC50 ([49]; lncap-clone-fgc): 18.3 µM

Cc1cc([N+](=O)[O-])ccc1NS(=O)(=O)c1cc(Cl)ccc1Cl
IC50 ([1]; Homo sapiens, C8166): 6.1 µM | IC50 ([2]; Homo sapiens, EW-3): > 32 µM | IC50 ([3]; Homo sapiens, NCI-H747): 7.48 µM | IC50 ([4]; Homo sapiens, ES7): 11.1 µM | IC50 ([5]; Homo sapiens, TE-10): 4 µM | IC50 ([6]; Homo sapiens, BB65-RCC): 6.37 µM | IC50 ([7]; Homo sapiens, SF-126): 9.88 µM | IC50 ([8]; Homo sapiens, Calu-6): 0.831 µM | IC50 ([9]; Homo sapiens, MLMA): 8.96 µM | IC50 ([10]; Homo sapiens, HT-144): 2.94 µM | IC50 ([11]; Homo sapiens, EW-11): > 32 µM | IC50 ([12]; Homo sapiens, DOHH-2): 17.2 µM | IC50 ([13]; Homo sapiens, D-502MG): 0.607 µM | IC50 ([14]; Homo sapiens, NB12): 11.1 µM | IC50 ([15]; Homo sapiens, KMOE-2): 3.84 µM | IC50 ([16]; Homo sapiens, LOX IMVI): 13.9 µM | IC50 ([17]; Homo sapiens): 6.74 µM | IC50 ([18]; Homo sapiens, OVCAR-4): 4.61 µM | IC50 ([19]; Homo sapiens, J-RT3-T3-5): 5.35 µM | IC50 ([20]; Homo sapiens, RCC10RGB): > 32 µM | IC50 ([21]; Homo sapiens, TE-11): > 32 µM | IC50 ([22]; Homo sapiens, EM-2): 16.3 µM | IC50 ([23]; Homo sapiens, HD-MY-Z): 14.3 µM | IC50 ([24]; Homo sapiens, DMS-114): > 32 µM | IC50 ([25]; Homo sapiens, TK-10): 10.2 µM | IC50 ([26]; Homo sapiens, L-428): > 32 µM | IC50 ([27]; Homo sapiens, HAL-01): 12.4 µM | IC50 ([28]; Homo sapiens, SK-LMS-1): 3.1 µM | IC50 ([29]; Homo sapiens, COLO-800): 8.91 µM | IC50 ([30]; Homo sapiens, K5): 6.43 µM | IC50 ([31]; Homo sapiens, NCI-H23): > 32 µM | IC50 ([32]; Homo sapiens, SJSA-1): 5.7 µM | IC50 ([33]; Homo sapiens, TE-1): 7.65 µM | IC50 ([34]; Homo sapiens, MC116): 3.14 µM | IC50 ([35]; Homo sapiens, NCI-H1092): > 32 µM | IC50 ([36]; Homo sapiens, RH-1): 10.2 µM | IC50 ([37]; Homo sapiens, SNB-75): > 32 µM | IC50 ([38]; Homo sapiens, RKO): 2.21 µM | IC50 ([39]; Homo sapiens, A704): 2.58 µM | IC50 ([40]; Homo sapiens, HT): 2.75 µM | IC50 ([41]; Homo sapiens, MV4-11): 5.23 µM | IC50 ([42]; Homo sapiens, D-263MG): 10.7 µM | IC50 ([43]; Homo sapiens, A498): > 32 µM | IC50 ([44]; Homo sapiens, BV-173): > 32 µM | IC50 ([45]; Homo sapiens, TGW): > 32 µM | IC50 ([46]; Homo sapiens, LXF-289): 5.36 µM | IC50 ([47]; Homo sapiens, NCI-H1355): 2.93 µM | IC50 ([48]; Homo sapiens, LS-411N): 4.52 µM | IC50 ([49]; Homo sapiens, LNCaP-Clone-FGC): 21.6 µM

Nc1ccn([C@@H]2O[C@H](CO)[C@@H](O)C2(F)F)c(=O)n1 [GEMCITABINE]
IC50 ([1]; Homo sapiens, C8166): 0.0131 µM | IC50 ([2]; Homo sapiens, EW-3): 0.58 µM | IC50 ([3]; Homo sapiens, NCI-H747): 0.0423 µM | IC50 ([4]; Homo sapiens, ES7): 0.0198 µM | IC50 ([5]; Homo sapiens, TE-10): 0.0162 µM | IC50 ([6]; Homo sapiens, BB65-RCC): < 0.004 µM | IC50 ([7]; Homo sapiens, SF-126): 0.00705 µM | IC50 ([8]; Homo sapiens, Calu-6): 0.00173 µM | IC50 ([9]; Homo sapiens, MLMA): 0.272 µM | IC50 ([10]; Homo sapiens, HT-144): 0.00492 µM | IC50 ([11]; Homo sapiens, EW-11): 0.434 µM | IC50 ([12]; Homo sapiens, DOHH-2): 0.196 µM | IC50 ([13]; Homo sapiens, D-502MG): > 1.02 µM | IC50 ([14]; Homo sapiens, NB12): 0.155 µM | IC50 ([15]; Homo sapiens, KMOE-2): 0.155 µM | IC50 ([16]; Homo sapiens, LOX IMVI): 0.0016 µM | IC50 ([17]; Homo sapiens): 0.737 µM | IC50 ([18]; Homo sapiens, OVCAR-4): 0.625 µM | IC50 ([19]; Homo sapiens, J-RT3-T3-5): 0.0672 µM | IC50 ([20]; Homo sapiens, RCC10RGB): 0.634 µM | IC50 ([21]; Homo sapiens, TE-11): > 1.02 µM | IC50 ([22]; Homo sapiens, EM-2): 0.16 µM | IC50 ([23]; Homo sapiens, HD-MY-Z): 0.00668 µM | IC50 ([24]; Homo sapiens, DMS-114): > 1.02 µM | IC50 ([25]; Homo sapiens, TK-10): 0.0145 µM | IC50 ([26]; Homo sapiens, L-428): 0.0236 µM | IC50 ([27]; Homo sapiens, HAL-01): 0.0082 µM | IC50 ([28]; Homo sapiens, SK-LMS-1): < 0.004 µM | IC50 ([29]; Homo sapiens, COLO-800): 0.0406 µM | IC50 ([30]; Homo sapiens, K5): 0.683 µM | IC50 ([31]; Homo sapiens, NCI-H23): 0.211 µM | IC50 ([32]; Homo sapiens, SJSA-1): 0.195 µM | IC50 ([33]; Homo sapiens, TE-1): > 1.02 µM | IC50 ([34]; Homo sapiens, MC116): 0.482 µM | IC50 ([35]; Homo sapiens, NCI-H1092): > 1.02 µM | IC50 ([36]; Homo sapiens, RH-1): < 0.004 µM | IC50 ([37]; Homo sapiens, SNB-75): 0.0372 µM | IC50 ([38]; Homo sapiens, RKO): < 0.004 µM | IC50 ([39]; Homo sapiens, A704): 0.0538 µM | IC50 ([40]; Homo sapiens, HT): > 1.02 µM | IC50 ([41]; Homo sapiens, MV4-11): < 0.004 µM | IC50 ([42]; Homo sapiens, D-263MG): > 1.02 µM | IC50 ([43]; Homo sapiens, A498): > 1.02 µM | IC50 ([44]; Homo sapiens, BV-173): 0.0173 µM | IC50 ([45]; Homo sapiens, TGW): 0.2 µM | IC50 ([46]; Homo sapiens, LXF-289): 0.00331 µM | IC50 ([47]; Homo sapiens, NCI-H1355): < 0.004 µM | IC50 ([48]; Homo sapiens, LS-411N): 0.0299 µM | IC50 ([49]; Homo sapiens, LNCaP-Clone-FGC): > 1.02 µM
